Assay results published in ChEMBL document CHEMBL1201862, “PubChem BioAssay data set” (2004).
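Exposure lasted 48 hours, with cells grown in 96-well plates and compounds tested at five concentrations. The concentration for 50% growth inhibition is given as GI50.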 Calls of active or inactive are those of the source. Cut-off read from the data, not from the text of the source: active = GI50 up to about 1.1 µM and inactive = higher.

What was measured:
Experiment in all cases: inhibition of tumour cell growth, NCI panel, 48 h
[1] = tested on: 786-0
[2] = tested on: A498
[3] = tested on: A549
[4] = tested on: ACHN
[5] = tested on: CAKI-1
[6] = tested on: CCRF-CEM
[7] = tested on: DLD-1
[8] = tested on: DMS-114
[9] = tested on: DMS-273
[10] = tested on: EKVX
[11] = tested on: HCC 2998
[12] = tested on: HCT-116
[13] = tested on: HCT-15
[14] = tested on: HL-60
[15] = tested on: HOP-18
[16] = tested on: HOP-92
[17] = tested on: HT-29
[18] = tested on: K562
[19] = tested on: KM-20L2
[20] = tested on: KM12
[21] = tested on: LOX IMVI
[22] = tested on: LXFL 529
[23] = tested on: M14
[24] = tested on: M19-MEL
[25] = tested on: MOLT-4
[26] = tested on: Malme-3M
[27] = tested on: NCI-H226
[28] = tested on: NCI-H23
[29] = tested on: NCI-H460
[30] = tested on: OVCAR-3
[31] = tested on: OVCAR-4
[32] = tested on: OVCAR-5
[33] = tested on: OVCAR-8
[34] = tested on: RPMI-8226
[35] = tested on: RXF 393
[36] = tested on: SF-268
[37] = tested on: SF-295
[38] = tested on: SF-539
[39] = tested on: SK-MEL-28
[40] = tested on: SK-MEL-2
[41] = tested on: SK-MEL-5
[42] = tested on: SN12C
[43] = tested on: SNB-19
[44] = tested on: SNB-75
[45] = tested on: SNB-78
[46] = tested on: SR
[47] = tested on: SW-620
[48] = tested on: TK-10
[49] = tested on: U-251
[50] = tested on: UACC-257
[51] = tested on: UACC-62
[52] = tested on: UO-31
[53] = tested on: NCI-H522
[54] = tested on: COLO 205
[55] = tested on: HOP-62
[56] = tested on: IGROV-1
[57] = tested on: SK-OV-3

CSCSCC(CO)NC(=O)/C=C/c1c(C)nc(O)nc1O (centres undefined)
GI50 [1]: > 100 µM (inactive)
GI50 [2]: > 100 µM (inactive)
GI50 [3]: > 100 µM (inactive)
GI50 [4]: > 100 µM (inactive)
GI50 [5]: 56.6 µM (inactive)
GI50 [6]: 44.4 µM (inactive)
GI50 [7]: > 100 µM (inactive)
GI50 [8]: 64.9 µM (inactive)
GI50 [9]: > 100 µM (inactive)
GI50 [10]: 57.1 µM (inactive)
GI50 [11]: > 100 µM (inactive)
GI50 [12]: > 100 µM (inactive)
GI50 [13]: > 100 µM
GI50 [14]: > 100 µM (inactive)
GI50 [15]: > 100 µM (inactive)
GI50 [16]: > 100 µM (inactive)
GI50 [17]: > 100 µM (inactive)
GI50 [18]: 39.7 µM (inactive)
GI50 [19]: 46.8 µM (inactive)
GI50 [20]: > 100 µM (inactive)
GI50 [21]: > 100 µM (inactive)
GI50 [22]: > 100 µM (inactive)
GI50 [23]: > 100 µM (inactive)
GI50 [24]: 84.3 µM (inactive)
GI50 [25]: 96.6 µM (inactive)
GI50 [26]: > 100 µM (inactive)
GI50 [27]: > 100 µM (inactive)
GI50 [28]: > 100 µM (inactive)
GI50 [29]: > 100 µM (inactive)
GI50 [30]: 26.4 µM (inactive)
GI50 [31]: 37 µM (inactive)
GI50 [32]: > 100 µM (inactive)
GI50 [33]: > 100 µM (inactive)
GI50 [34]: > 100 µM (inactive)
GI50 [35]: > 100 µM (inactive)
GI50 [36]: 30.8 µM (inactive)
GI50 [37]: > 100 µM (inactive)
GI50 [38]: > 100 µM (inactive)
GI50 [39]: > 100 µM (inactive)
GI50 [40]: 89.9 µM (inactive)
GI50 [41]: > 100 µM (inactive)
GI50 [42]: > 100 µM (inactive)
GI50 [43]: 28.8 µM (inactive)
GI50 [44]: > 100 µM (inactive)
GI50 [45]: > 100 µM (inactive)
GI50 [46]: 56.4 µM (inactive)
GI50 [47]: > 100 µM (inactive)
GI50 [48]: > 100 µM (inactive)
GI50 [49]: 64.3 µM (inactive)
GI50 [50]: > 100 µM (inactive)
GI50 [51]: > 100 µM (inactive)
GI50 [52]: > 100 µM (inactive)

COc1ccc2c(c[n+](C)c3c4cc5c(cc4ccc23)OCO5)c1OC [CHELERYTHRINE CHLORIDE]
GI50 [5]: 1.91 µM (inactive)
GI50 [7]: 1.7 µM (inactive)
GI50 [8]: 2.18 µM (inactive)
GI50 [9]: 2.04 µM (inactive)
GI50 [15]: 1.8 µM (inactive)
GI50 [19]: 1.74 µM (inactive)
GI50 [22]: 1.73 µM (inactive)
GI50 [24]: 1.6 µM (inactive)
GI50 [53]: 2.14 µM (inactive)
GI50 [40]: 2.04 µM (inactive)
GI50 [45]: 2 µM (inactive)
GI50 [46]: 1.28 µM (inactive)

COc1ccc(/C=C/C(=O)c2c(-c3ccccc3)nn(C)c(=O)c2N2CC2C)cc1 (centres undefined)
GI50 [1]: 36.4 µM (inactive)
GI50 [2]: 23.9 µM (inactive)
GI50 [3]: 43.2 µM (inactive)
GI50 [4]: 36.2 µM (inactive)
GI50 [5]: 44.5 µM (inactive)
GI50 [6]: 22.9 µM (inactive)
GI50 [54]: 34.3 µM (inactive)
GI50 [7]: 26.1 µM (inactive)
GI50 [8]: 24.7 µM (inactive)
GI50 [9]: 21 µM (inactive)
GI50 [10]: 19.6 µM (inactive)
GI50 [11]: 26.6 µM (inactive)
GI50 [12]: 36.1 µM (inactive)
GI50 [13]: 24.3 µM
GI50 [14]: 17.5 µM (inactive)
GI50 [15]: 27.5 µM (inactive)
GI50 [55]: 35.6 µM (inactive)
GI50 [16]: 29 µM (inactive)
GI50 [17]: 32.4 µM (inactive)
GI50 [56]: 59.3 µM (inactive)
GI50 [18]: 26.2 µM (inactive)
GI50 [19]: 23.9 µM (inactive)
GI50 [20]: 30.3 µM (inactive)
GI50 [21]: 16.3 µM (inactive)
GI50 [22]: 25.1 µM (inactive)
GI50 [23]: 28.8 µM (inactive)
GI50 [24]: 49.9 µM (inactive)
GI50 [25]: 25.5 µM (inactive)
GI50 [26]: 35.7 µM (inactive)
GI50 [27]: 45.3 µM (inactive)
GI50 [28]: 19 µM (inactive)
GI50 [29]: 27.5 µM (inactive)
GI50 [53]: 22.7 µM (inactive)
GI50 [30]: 24.3 µM (inactive)
GI50 [31]: 27.9 µM (inactive)
GI50 [32]: 37.6 µM (inactive)
GI50 [33]: 32.4 µM (inactive)
GI50 [35]: 27.9 µM (inactive)
GI50 [36]: 26.8 µM (inactive)
GI50 [37]: 33.8 µM (inactive)
GI50 [38]: 39.1 µM (inactive)
GI50 [39]: 52.6 µM (inactive)
GI50 [40]: 21.8 µM (inactive)
GI50 [41]: 29.4 µM (inactive)
GI50 [57]: 30.2 µM (inactive)
GI50 [42]: 37 µM (inactive)
GI50 [43]: 37.8 µM (inactive)
GI50 [44]: 24.8 µM (inactive)
GI50 [45]: 30.1 µM (inactive)
GI50 [47]: 26.4 µM (inactive)
GI50 [48]: 41.1 µM (inactive)
GI50 [49]: 27.9 µM (inactive)
GI50 [50]: 42.2 µM (inactive)
GI50 [51]: 19 µM (inactive)
GI50 [52]: 70.3 µM (inactive)
